Measured values: patent US8796273B2, “Compound for the treatment of enteroviruses” (priority 2010, dated 2014)

Experiments:
Poliovirus 1 (PV1) = assay: microbe, parasite or virus in culture; type: cell-based, Human enterovirus C; conditions: Enterovirus C, read-out: EC50, replication of Poliovirus 1 (PV1)
Enterovirus 71 (EV71) = assay: microbe, parasite or virus in culture; type: cell-based, Human enterovirus A; conditions: Enterovirus A, EV71, read-out: EC50, replication of Enterovirus 71 (EV71)

SMILES | EC50 (Poliovirus 1 (PV1)) [nM] | EC50 (Enterovirus 71 (EV71)) [nM]
CC(C)S(=O)(=O)n1c(N)nc2ccc(/C(=N/O)c3ccccc3)cc21 [Enviroxime] | 790 ± 130 | 450 ± 120
COc1ccc(OCc2ccc(COc3c(Cl)cccc3Cl)cc2)c(Cl)c1 [Compound V-073, V-073] | 26 ± 23 | > 300000
Cc1cc(CCCOc2c(C)cc(-c3noc(C(F)(F)F)n3)cc2C)on1 [Pleconaril] | > 300000 | > 300000
CCOC(=O)/C=C/[C@H](C[C@@H]1CCNC1=O)NC(=O)[C@@H](CC(=O)[C@@H](NC(=O)c1cc(C)on1)C(C)C)Cc1ccc(F)cc1 [Rupintrivir] | 4500 ± 360 | 900 ± 70
